In paper PMC5196434, “Proximity does not contribute to activity enhancement in the glucose oxidase–horseradish peroxidase cascade” (Nature Communications, 2016) one finds Km data, which are given here for one substance.

The assay deals with T1, glucose oxidase (GOx) (Aspergillus niger, UniProt P13006).
T1 construct: commercial type VII preparation (Sigma Aldrich), free enzyme
Description: HRP-coupled ABTS colorimetric assay, absorbance at […] nm. It counts as biochemical. The note with it: co-substrate oxygen; 20 nM HRP, 2 mM ABTS; PBS pH 7.4; 23 °C; read-out: Michaelis-Menten kinetics (Km).

T1 sequence (P13006 23-605): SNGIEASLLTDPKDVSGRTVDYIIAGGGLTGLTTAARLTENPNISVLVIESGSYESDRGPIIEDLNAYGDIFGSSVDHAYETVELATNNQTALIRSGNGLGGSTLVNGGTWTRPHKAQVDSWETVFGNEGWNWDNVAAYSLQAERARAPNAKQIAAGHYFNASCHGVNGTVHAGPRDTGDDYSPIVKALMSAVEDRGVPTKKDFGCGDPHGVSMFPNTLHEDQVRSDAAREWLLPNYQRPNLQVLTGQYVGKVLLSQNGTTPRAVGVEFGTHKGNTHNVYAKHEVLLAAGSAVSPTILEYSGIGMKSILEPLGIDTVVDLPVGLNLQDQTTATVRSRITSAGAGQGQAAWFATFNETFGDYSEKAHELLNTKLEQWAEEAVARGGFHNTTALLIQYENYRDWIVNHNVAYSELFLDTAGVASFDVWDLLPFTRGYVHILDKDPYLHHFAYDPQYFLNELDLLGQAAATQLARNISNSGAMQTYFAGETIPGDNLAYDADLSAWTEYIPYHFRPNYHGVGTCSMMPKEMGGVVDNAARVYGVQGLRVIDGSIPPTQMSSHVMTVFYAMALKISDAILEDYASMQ

The Km is the substrate concentration at which the rate is half of its maximum. D-glucose: the Km amounted to 15 mM.
